Where two headings read alike, the source gives them in different places.
Assays:
[1] = Pharmacokinetic test of CD-1 mice; format: in vivo; parameters: AUC(0-t) / AUC(0-inf): concentration or dose not given beside the values; settings: male CD-1 mice, single oral gavage (PO), plasma; for AUC(0-inf) / AUC(0-t) / Cmax / MRT last / Tmax: mouse
Experimental: Plasma was collected from male CD-1 mice after a single gavage administration of the test substance. The plasma was then analyzed to calculate pharmacokinetic parameters.
The solvent is 5% DMSO + 10% Solutol HS-15 + 85% Saline.
Formulation preparation process: Accurately weighed the compound powder, added appropriate volumes of DMSO, Solutol and physiological saline in sequence, and vortexed sonicate at each step to finally form a homogeneous formulation solution.
Experimental animals were housed in the SPF-grade animal facility of Suzhou Xihua New Drug Development Co., Ltd. (License No.: SYXK(Su)2021-0019). Animals were fed normally for at least 3 days after purchase before the experiment, and each mouse was marked with a tail tag. Animals in the oral administration group were fasted overnight the day before administration, and were resumed feeding 4 hours later, with free access to water. Table 4. Sources and Number of Experimental Animals […]
Before administration, checked the state of the administration formulation and ensured its homogeneity by vortexing, stirring or shaking. Calculated the theoretical administration volume for each CD-1 mouse in each group according to the following formula. Theoretical administration volume (mL); = (Dose (mg⋅kg^−1))/(formulation concentration (mg⋅mL^−1)) × animal body weight (kg) [formula]
Table 5 Sample Collection Information
The collected blood was placed in test tubes containing the anticoagulant EDTA-K2 (15 % EDTA-K2 solution), stored on moist ice, and centrifuged within 45 min (1,500 g, 2-8 °C, 10 min). Plasma was then collected. The plasma was stored in pre-chilled centrifuge tubes, flash-frozen on dry ice, and subsequently stored in an ultra-low temperature freezer at -60 °C or lower until shipment.
A quantitative detection method for the analyte was established using Shimadzu liquid chromatography and Triple Quad™ 6500+AB mass spectrometry. The concentration of the parent drug in plasma was analyzed. The analytical results were controlled for variation using quality control samples, with the accuracy of the quality control samples expected to be between 80% and 120%.
The main pharmacokinetic parameters were calculated using a non-compartmental model in Winnonlin Phoenix software. These parameters included the area under the curve (AUC(0-t) and AUC(0-∞)), elimination half-life (T1/2), maximum plasma concentration (Cmax ), and time to reach maximum plasma concentration (Tmax).

[2] = system: HCC827; assay: Cell anti-proliferation experiment (CTG); format: cell-based; settings: Homo sapiens, HCC827 (exon 19 deletion), class symbol
How it was run: (§1)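 Cells were seeded at 1500–2500/well and dosed after ~24 h with compound in a 1:4 dilution series up to 10,000 nM, in triplicate. Viability was read by CTG luminescence after 72 h, normalized to the 0.1% DMSO control and medium blank, and IC50 was obtained by curve fitting.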

[3] = system: Baf3-19del- T790M -C797S (Baf3-DTC); assay: Cell anti-proliferation experiment (CTG); format: cell-based; settings: class symbol
How it was run: (§2)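 PC-9 (EGFR exon 19 del), H1975 (T790M/L858R), A431 (wild-type EGFR) and a Ba/F3 clone stably expressing mutant EGFR were seeded at 1500-2500 cells/well, left 24 h, then treated in triplicate with 1:4 dilutions up to 10,000 nM for 72 h. CTG luminescence was normalised to 0.1% DMSO and blank medium; IC50 from curve fit.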

[4] = system: A431; assay: Cell anti-proliferation experiment (CTG); format: cell-based; settings: Homo sapiens, A431 (wild-type EGFR), class symbol
How it was run: as §2

[5] = system: PC-9; assay: Cell anti-proliferation experiment (CTG); format: cell-based; settings: Homo sapiens, PC-9 (EGFR exon 19 deletion), class symbol
How it was run: as §2

[6] = system: H1975; assay: Cell anti-proliferation experiment (CTG); format: cell-based; settings: Homo sapiens, H1975 (EGFR T790M/L858R), class symbol
How it was run: as §2

[7] = system: A549; assay: Cell anti-proliferation experiment (CTG); format: cell-based; settings: Homo sapiens, A549 (wild-type EGFR), class symbol
How it was run: as §1

[8] = system: Baf3-L858R-T790M - C797S (Baf3-LTC); assay: Cell anti-proliferation experiment (CTG); format: cell-based; settings: class symbol
How it was run: as §2

[9] = molecular target: EGFR in Baf3-L858R-T790M-C797S (Homo sapiens, UniProt P00533, C797S/L858R/T790M); assay: EGFR PROTAC HTRF experiment (total EGFR degradation); format: cell-based
EGFR in Baf3-L858R-T790M-C797S, sequence (P00533 25-1210 T790M/C797S/L858R): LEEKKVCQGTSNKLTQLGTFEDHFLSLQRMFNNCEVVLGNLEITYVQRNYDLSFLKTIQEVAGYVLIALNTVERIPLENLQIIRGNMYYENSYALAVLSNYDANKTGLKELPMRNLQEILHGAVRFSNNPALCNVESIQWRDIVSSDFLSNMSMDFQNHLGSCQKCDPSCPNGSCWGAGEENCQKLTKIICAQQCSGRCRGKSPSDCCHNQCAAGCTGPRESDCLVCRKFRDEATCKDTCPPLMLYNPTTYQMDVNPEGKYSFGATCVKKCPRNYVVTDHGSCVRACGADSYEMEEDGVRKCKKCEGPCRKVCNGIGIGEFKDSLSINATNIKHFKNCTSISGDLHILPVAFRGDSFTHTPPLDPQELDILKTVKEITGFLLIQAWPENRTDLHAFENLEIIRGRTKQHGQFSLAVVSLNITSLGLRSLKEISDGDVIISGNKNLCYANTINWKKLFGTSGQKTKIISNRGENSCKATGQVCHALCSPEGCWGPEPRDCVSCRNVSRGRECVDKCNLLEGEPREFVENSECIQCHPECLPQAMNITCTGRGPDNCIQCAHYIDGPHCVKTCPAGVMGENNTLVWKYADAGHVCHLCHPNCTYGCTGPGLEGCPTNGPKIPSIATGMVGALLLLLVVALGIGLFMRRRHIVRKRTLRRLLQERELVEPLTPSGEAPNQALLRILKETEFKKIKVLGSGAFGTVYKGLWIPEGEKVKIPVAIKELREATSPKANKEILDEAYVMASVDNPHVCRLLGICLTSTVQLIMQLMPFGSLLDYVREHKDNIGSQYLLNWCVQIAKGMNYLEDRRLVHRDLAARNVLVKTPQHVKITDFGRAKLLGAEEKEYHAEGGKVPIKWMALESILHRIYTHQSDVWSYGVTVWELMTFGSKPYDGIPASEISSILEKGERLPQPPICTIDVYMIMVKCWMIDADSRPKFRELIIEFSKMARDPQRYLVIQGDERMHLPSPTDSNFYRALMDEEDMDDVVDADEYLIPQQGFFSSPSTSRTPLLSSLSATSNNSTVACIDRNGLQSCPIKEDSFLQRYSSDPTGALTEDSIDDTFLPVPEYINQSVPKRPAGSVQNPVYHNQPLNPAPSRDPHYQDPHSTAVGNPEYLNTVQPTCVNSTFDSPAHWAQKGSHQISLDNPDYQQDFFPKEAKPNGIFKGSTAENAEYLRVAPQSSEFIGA
Experimental: (§3) [table] Among them, B[…] -C797S (abbreviated as Baf3-DTC) is a stable Ba/F3 clone expressing exogenous EGFR gene bearing T790M, C797S and […] triple amino acid mutations, purchased from KYinno; Baf3-L858R-T790M - C797S (abbreviated as Baf3-LTC) is a stable Ba/F3 clone expressing exogenous EGFR gene bearing […], T790M, C797S triple mutations, purchased from KYinno. [table] [table] Dilutded Eu and d2 antibodies 2μl per well with detection buffer 20-fold. Then mixed the two antibody vials thoroughly. [table] Opened EnVision , locate the HTRF program, configured the board, and then read […]. The fitted curve, DC50 and Dmax of this compound could be generated using GraphPad Prism .

[10] = molecular target: EGFR in Baf3-19del-T790M-C797S (Homo sapiens, UniProt P00533, C797S/DEL746-750/T790M); assay: as above; format: cell-based
EGFR in Baf3-19del-T790M-C797S, sequence (P00533 with tags, fused parts or gaps DEL746-750/T790M/C797S): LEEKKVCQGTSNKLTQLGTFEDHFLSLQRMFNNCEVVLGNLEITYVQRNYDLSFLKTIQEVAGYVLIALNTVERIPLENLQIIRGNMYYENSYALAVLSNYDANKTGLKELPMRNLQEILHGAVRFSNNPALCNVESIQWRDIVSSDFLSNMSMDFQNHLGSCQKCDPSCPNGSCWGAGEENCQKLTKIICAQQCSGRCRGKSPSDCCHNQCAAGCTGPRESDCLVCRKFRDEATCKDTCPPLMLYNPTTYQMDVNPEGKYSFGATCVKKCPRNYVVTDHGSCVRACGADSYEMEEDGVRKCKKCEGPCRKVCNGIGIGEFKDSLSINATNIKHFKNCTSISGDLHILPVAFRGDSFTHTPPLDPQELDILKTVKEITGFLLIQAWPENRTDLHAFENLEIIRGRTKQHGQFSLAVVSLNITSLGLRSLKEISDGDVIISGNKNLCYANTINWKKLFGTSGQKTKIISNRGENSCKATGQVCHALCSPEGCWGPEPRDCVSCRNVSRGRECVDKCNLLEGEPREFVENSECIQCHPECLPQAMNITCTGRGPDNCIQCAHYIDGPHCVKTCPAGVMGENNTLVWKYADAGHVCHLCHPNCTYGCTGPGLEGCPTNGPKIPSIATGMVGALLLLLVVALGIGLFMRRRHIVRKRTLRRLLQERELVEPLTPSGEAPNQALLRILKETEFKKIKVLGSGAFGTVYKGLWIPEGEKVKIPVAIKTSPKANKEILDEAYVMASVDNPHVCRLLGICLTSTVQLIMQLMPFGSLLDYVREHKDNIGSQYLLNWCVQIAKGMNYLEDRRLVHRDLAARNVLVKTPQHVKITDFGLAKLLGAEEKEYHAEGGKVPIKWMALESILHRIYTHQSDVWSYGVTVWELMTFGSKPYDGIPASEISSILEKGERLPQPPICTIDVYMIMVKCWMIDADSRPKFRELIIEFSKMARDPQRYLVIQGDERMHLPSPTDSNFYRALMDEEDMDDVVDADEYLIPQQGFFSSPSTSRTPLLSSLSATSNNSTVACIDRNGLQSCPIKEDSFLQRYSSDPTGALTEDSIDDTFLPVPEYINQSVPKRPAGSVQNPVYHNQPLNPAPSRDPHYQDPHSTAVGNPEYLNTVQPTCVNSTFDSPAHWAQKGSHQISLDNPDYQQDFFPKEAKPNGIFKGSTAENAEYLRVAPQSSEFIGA
Experimental: as §3

[11] = Pharmacokinetic tests in male SD rats; format: in vivo; settings: oral gavage (po), 10 mg/kg, plasma
How it was run: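 Fasted male SD rats (n=3) dosed 10 mg/kg by oral gavage as 1 mg/mL solution in 10% DMSO/90% 0.5% MC. Tail-vein EDTA plasma sampled 0.5–24 h, parent drug quantified by LC-MS/MS; AUC, T1/2, Cmax, Tmax by non-compartmental analysis.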

[12] = read-out: Baf3-LTC DC50; Baf3-LTC, incubated 16 hours, HTRF total EGFR
[13] = read-out: Baf3-DTC DC50; Baf3-DTC, incubated 16 hours, HTRF total EGFR

SMILES: CCc1cc(Nc2ncc(Cl)c(Nc3ccccc3P(C)(C)=O)n2)c(OC)cc1N1CCN(C(=O)CN2CCC(c3cc4c(cc3F)c(N3CCC(=O)NC3=O)nn4C)C(F)(F)C2)CC1 (stereo not shown) [TA-005]
- HL_ [1]: 2.28 h
- AUC(0-inf) [1]: 36300 ng·h/mL
- AUC(0-t) [1]: 36300 ng·h/mL
- Cmax [1]: 5970 ng/mL
- MRT last [1]: 4.59 h
- Tmax [1]: 1 h

SMILES: CCc1cc(Nc2ncc(Br)c(Nc3ccccc3C(=O)NC)n2)c(OC)cc1N1CCN(C(=O)CN2CCC(c3cc4c(cc3F)c(N3CCC(=O)NC3=O)nn4C)C(F)(F)C2)CC1 (stereo not shown) [TA-004]
- HL_ [1]: 2.67 h
- AUC(0-inf) [1]: 28800 ng·h/mL
- AUC(0-t) [1]: 28800 ng·h/mL
- Cmax [1]: 3170 ng/mL
- MRT last [1]: 6.01 h
- Tmax [1]: 2 h
- IC50 ([2]; HCC827, 72 h): > 1000 nM
- IC50 ([3]; 72 h): 10 to 100 nM
- IC50 ([4]; A-431, 72 h): > 1000 nM
- IC50 ([5]; PC-9, 72 h): > 1000 nM
- IC50 ([6]; NCI-H1975, 72 h): 10 to 100 nM
- IC50 ([7]; A549, 72 h): > 1000 nM
- IC50 ([8]; 72 h): 10 to 100 nM
- DC50 ([9]; Baf3-LTC, incubated 16 hours, HTRF total EGFR; read-out: Baf3-LTC DC50): 100 to 1000 nM
- Dmax ([9]; Baf3-LTC, incubated 16 hours, HTRF total EGFR; read-out: Baf3-LTC Dmax): 70 to 100%
- DC50 ([10]; Baf3-DTC, incubated 16 hours, HTRF total EGFR; read-out: Baf3-DTC DC50): 100 to 1000 nM
- Dmax ([10]; Baf3-DTC, incubated 16 hours, HTRF total EGFR; read-out: Baf3-DTC Dmax): 70 to 100%

SMILES: CCc1cc(Nc2ncc(Cl)c(Nc3ccccc3C(=O)NC)n2)c(OC)cc1N1CCN(C(=O)CN2CCC(c3ccc4c(N5CCC(=O)NC5=O)nn(C)c4c3)C(F)(F)C2)CC1 (stereo not shown) [Comparative Example 1-1, reference compound]
- HL_ [1]: 2.41 h
- AUC(0-inf) [1]: 14300 ng·h/mL
- AUC(0-t) [1]: 14300 ng·h/mL
- Cmax [1]: 1740 ng/mL
- MRT last [1]: 6.06 h
- Tmax [1]: 2 h
- IC50 ([2]; 72 hours): 100 to 1000 nM
- IC50 ([4]; A-431, 72 hours): 100 to 1000 nM
- IC50 ([5]; 72 hours): 100 to 1000 nM
- IC50 ([6]; NCI-H1975, 72 hours): 10 to 100 nM
- IC50 ([7]; 72 hours): 10 to 100 nM
- DC50 [9, 12]: 10 to 100 nM
- Dmax ([9]; read-out: Baf3-LTC Dmax): 70 to 100%
- DC50 [10, 13]: 10 to 100 nM
- Dmax ([10]; read-out: Baf3-DTC Dmax): 70 to 100%

SMILES: CCc1cc(Nc2ncc(Br)c(Nc3ccccc3P(C)(C)=O)n2)c(OC)cc1N1CCN(C(=O)CN2CCC(c3cc4c(cc3F)c(N3CCC(=O)NC3=O)nn4C)C(F)(F)C2)CC1 (stereo not shown) [TC-158]
- HL [11]: 2.81 h
- AUC(0-inf) ([11]; rat): 5610 ng·h/mL
- AUC(0-t) ([11]; rat): 5590 ng·h/mL
- Cmax ([11]; rat): 533 ng/mL
- MRT last ([11]; rat): 6.02 h
- Tmax ([11]; rat): 2.67 h
- IC50 ([2]; 72 hours): 100 to 1000 nM
- IC50 ([3]; 72 hours): < 10 nM
- IC50 ([4]; A-431, 72 hours): > 1000 nM
- IC50 ([5]; 72 hours): 100 to 1000 nM
- IC50 ([6]; NCI-H1975, 72 hours): 10 to 100 nM
- IC50 ([7]; 72 hours): > 1000 nM
- IC50 ([8]; 72 hours): < 10 nM
- DC50 [9, 12]: < 10 nM
- Dmax ([9]; read-out: Baf3-LTC Dmax): 70 to 100%
- DC50 [10, 13]: < 10 nM
- Dmax ([10]; read-out: Baf3-DTC Dmax): 70 to 100%

— patent EP4813979A1, “COMPOUND FOR EGFR PROTEIN DEGRADATION AND USE THEREOF” (TYK Medicines, Inc., priority 2023, dated 2025)
